Cl.NC1CCSC1=O (racemic)
solubility (mole fraction)
Conditions | in 1,4-dioxane | in 2-butanone | in acetone | in acetonitrile | in dichloromethane | in ethanol | in ethyl acetate | in isopropanol | in methanol
283.15 K | – | 0.000125 | 0.000115 | 4.5e-05 | 6.4e-05 | 0.00319 | 0.000238 | 0.000521 | 0.0154
288.15 K | – | – | – | – | 0.000114 | – | – | – | –
293.15 K | 0.0005 | 0.00021 | 0.000202 | 8.7e-05 | 0.000171 | 0.00413 | 0.000281 | 0.000786 | 0.0187
298.15 K | – | – | – | – | 0.000262 | – | – | – | –
303.15 K | 0.000691 | 0.000307 | 0.00026 | 0.000135 | 0.000356 | 0.00509 | 0.000342 | 0.00116 | 0.0226
308.15 K | 0.000783 | – | – | – | – | – | – | – | –
313.15 K | 0.000872 | 0.000361 | 0.000331 | 0.000175 | – | 0.00627 | 0.000385 | 0.00154 | 0.0272
323.15 K | 0.000995 | 0.000431 | 0.000439 | 0.000212 | – | 0.00766 | 0.000458 | 0.00187 | 0.0326

From BigSolDB 2.1
